The subject of this series is CCRIS mutagenicity, Ames/micronucleus/aberration tests. Nature of the series: CCRIS mutagenicity studies.
[1] abbreviates: Test System: AMES SALMONELLA TYPHIMURIUM, Strain/Indicator: TA98, Metabolic Activation: RAT, LIVER, S-9, AROCLOR 1254, Method: STANDARD PLATE.
The mark [2] stands for this setting: Test System: AMES SALMONELLA TYPHIMURIUM, Strain/Indicator: TA98, Metabolic Activation: NONE, Method: STANDARD PLATE.
Setting [3] is: Test System: AMES SALMONELLA TYPHIMURIUM, Strain/Indicator: TA100, Metabolic Activation: NONE, Method: STANDARD PLATE.
Setting [4] is: Test System: AMES SALMONELLA TYPHIMURIUM, Strain/Indicator: TA97, Metabolic Activation: HAMSTER, LIVER, S-9, AROCLOR 1254 (10 OR 30%), Method: PREINCUBATION
The mark [5] stands for this setting: Test System: AMES SALMONELLA TYPHIMURIUM, Strain/Indicator: TA97, Metabolic Activation: NONE, Method: PREINCUBATION
The mark [6] stands for this setting: Test System: AMES SALMONELLA TYPHIMURIUM, Strain/Indicator: TA97, Metabolic Activation: RAT, LIVER, S-9, AROCLOR 1254 (10 OR 30%), Method: PREINCUBATION
The mark [7] stands for this setting: Test System: AMES SALMONELLA TYPHIMURIUM, Strain/Indicator: TA98, Metabolic Activation: HAMSTER, LIVER, S-9, AROCLOR 1254 (10 OR 30%), Method: PREINCUBATION
Setting [8] is: Test System: AMES SALMONELLA TYPHIMURIUM, Strain/Indicator: TA98, Metabolic Activation: NONE, Method: PREINCUBATION
Where [9] appears, read: Test System: AMES SALMONELLA TYPHIMURIUM, Strain/Indicator: TA98, Metabolic Activation: RAT, LIVER, S-9, AROCLOR 1254 (10 OR 30%), Method: PREINCUBATION
[10] abbreviates: Test System: AMES SALMONELLA TYPHIMURIUM, Strain/Indicator: TA100, Metabolic Activation: HAMSTER, LIVER, S-9, AROCLOR 1254 (10 OR 30%), Method: PREINCUBATION
[11] abbreviates: Test System: AMES SALMONELLA TYPHIMURIUM, Strain/Indicator: TA100, Metabolic Activation: NONE, Method: PREINCUBATION
Where [12] appears, read: Test System: AMES SALMONELLA TYPHIMURIUM, Strain/Indicator: TA100, Metabolic Activation: RAT, LIVER, S-9, AROCLOR 1254 (10 OR 30%), Method: PREINCUBATION
[13] abbreviates: Test System: AMES SALMONELLA TYPHIMURIUM, Strain/Indicator: TA1535, Metabolic Activation: HAMSTER, LIVER, S-9, AROCLOR 1254 (10 OR 30%), Method: PREINCUBATION
[14] abbreviates: Test System: AMES SALMONELLA TYPHIMURIUM, Strain/Indicator: TA1535, Metabolic Activation: NONE, Method: PREINCUBATION
The mark [15] stands for this setting: Test System: AMES SALMONELLA TYPHIMURIUM, Strain/Indicator: TA1535, Metabolic Activation: RAT, LIVER, S-9, AROCLOR 1254 (10 OR 30%), Method: PREINCUBATION
Where [16] appears, read: Test System: AMES SALMONELLA TYPHIMURIUM, Strain/Indicator: TA1535, Metabolic Activation: NONE, Method: STANDARD PLATE.

Activity calls are given as the source filed them. The rule behind the calls is not given here.

This is an account of results in PubChem BioAssay AID1259407 (Chemical Carcinogenesis Research Information System (CCRIS), 2018).

With `Cn1ccc2c3c(ccc4ccc(O)cc43)ccc21`, the mutagenic call was “inactive; negative” under setting [1] and “active; positive” (Test System: AMES SALMONELLA TYPHIMURIUM, Strain/Indicator: TA98, Metabolic Activation: RAT, LIVER, S-9, AROCLOR, Method: STANDARD PLATE).

For `ClC[C@H](Br)CBr`, under “Test System: AMES SALMONELLA TYPHIMURIUM, Strain/Indicator: TA100, Metabolic Activation: RAT, LIVER, MICROSOMES, Method: PREINCUBATION”, the mutagenic call was “active; positive”.

Take `O[C@@H]1[C@@H]2O[C@@H]2c2c(ccc3nc4ccc5ccccc5c4cc23)[C@H]1O`: the mutagenic call reads like this: under setting [2], “active; positive”; (Test System: AMES SALMONELLA TYPHIMURIUM, Strain/Indicator: TA100, Metabolic Activation: GUINEA PIG, LIVER, S-9, 3-METHYLCHOLANTHRENE, Method: STANDARD PLATE) “active; positive”; under setting [3], “active; positive”; (Test System: CHINESE HAMSTER V-79, Strain/Indicator: V-79/6-THIOGUANINE, Metabolic Activation: NONE) “active; positive”.

With `O=S(=O)(O)c1cc(S(=O)(=O)O)c2c(N=Nc3ccccc3)c(O)ccc2c1`, the mutagenic call is, setting by setting: (End Point: IN VITRO CHROMOSOMAL ABERRATIONS, Test System: CHO CELLS, Metabolic Activation: NONE) “inactive; negative”; (End Point: IN VITRO CHROMOSOMAL ABERRATIONS, Test System: CHO CELLS, Metabolic Activation: RAT, LIVER, S-9, AROCLOR 1254) “active; positive”; under setting [4], “inactive; negative”; under setting [5], “inactive; negative”; under setting [6], “inactive; negative”; under setting [7], “inactive; negative”. The mutagenic call was “inactive; negative” under setting [8]; “inactive; negative” under setting [9]; “inactive; negative” under setting [10]; “inactive; negative” under setting [11]; “inactive; negative” under setting [12]; “inactive; negative” under setting [13]. The mutagenic call is “inactive; negative” under setting [14]; “inactive; negative” under setting [15]; “inactive; negative. reevaluation of results: negative” (Test System: MOUSE LYMPHOMA, Strain/Indicator: L5178Y (TK+/TK-), Metabolic Activation: NONE, Method: SUSPENSION/PLATE); “active; positive. reevaluation of results: equivocal” (Test System: MOUSE LYMPHOMA, Strain/Indicator: L5178Y (TK+/TK-), Metabolic Activation: RAT, LIVER, S-9, AROCLOR 1254, Method: SUSPENSION/PLATE).

Regarding `NC(=O)c1ccccc1O`, the mutagenic call was “inactive; negative” under setting [4]; “inactive; negative” under setting [5]; “inactive; negative” under setting [6]; “inactive; negative” (Test System: AMES SALMONELLA TYPHIMURIUM, Strain/Indicator: TA98, Metabolic Activation: GUINEA PIG, LIVER, S-9, PCB, Method: PREINCUBATION); “inactive; negative” under setting [7]; “inactive; negative” (Test System: AMES SALMONELLA TYPHIMURIUM, Strain/Indicator: TA98, Metabolic Activation: HAMSTER, LIVER, S-9, PCB, Method: PREINCUBATION). The mutagenic call runs as follows: (Test System: AMES SALMONELLA TYPHIMURIUM, Strain/Indicator: TA98, Metabolic Activation: MOUSE, LIVER, S-9, PCB, Method: PREINCUBATION) “inactive; negative”; under setting [8], “inactive; negative”; under setting [9], “inactive; negative”; (Test System: AMES SALMONELLA TYPHIMURIUM, Strain/Indicator: TA98, Metabolic Activation: RAT, LIVER, S-9, PCB, Method: PREINCUBATION) “inactive; negative”; (Test System: AMES SALMONELLA TYPHIMURIUM, Strain/Indicator: TA100, Metabolic Activation: GUINEA PIG, LIVER, S-9, PCB, Method: PREINCUBATION) “inactive; negative”; under setting [10], “inactive; negative”. Moreover, the mutagenic call reads like this: (Test System: AMES SALMONELLA TYPHIMURIUM, Strain/Indicator: TA100, Metabolic Activation: HAMSTER, LIVER, S-9, PCB, Method: PREINCUBATION) “inactive; negative”; (Test System: AMES SALMONELLA TYPHIMURIUM, Strain/Indicator: TA100, Metabolic Activation: MOUSE, LIVER, S-9, PCB, Method: PREINCUBATION) “inactive; negative”; under setting [11], “inactive; negative”; under setting [12], “inactive; negative”; (Test System: AMES SALMONELLA TYPHIMURIUM, Strain/Indicator: TA100, Metabolic Activation: RAT, LIVER, S-9, PCB, Method: PREINCUBATION) “inactive; negative”; under setting [13], “inactive; negative”. Also, the mutagenic call under setting [14] is “inactive; negative” and the mutagenic call under setting [15] was “inactive; negative”.

With `COc1c(Cl)ccc2oc3cc4c(c(OC)c3c(=O)c12)[C@@H]1C=CO[C@@H]1O4`, the mutagenic call is “inactive; negative” under setting [2]; “active; positive” under setting [1]; “active; positive” under setting [3]; “active; positive” (Test System: AMES SALMONELLA TYPHIMURIUM, Strain/Indicator: TA100, Metabolic Activation: RAT, LIVER, S-9, AROCLOR 1254, Method: STANDARD PLATE).

On to `CCCCCCCCCCCCN`, for which the mutagenic call is, setting by setting: (End Point: In vitro Chromosomal aberrations, Test System: CHO Cells, Metabolic Activation: None) “inactive; negative; cytotoxic at 12 and 18 ug/ml”; (End Point: In vitro Chromosomal aberrations, Test System: CHO Cells, Metabolic Activation: Rodent S-9) “inactive; negative; cytotoxic at 12 and 18 ug/ml”.

Turning to `CC(C)CN(C(=O)CCCl)c1snc2ccccc12`, the mutagenic call under setting [2] was “inactive; negative”; the mutagenic call (Test System: AMES SALMONELLA TYPHIMURIUM, Strain/Indicator: TA98, Metabolic Activation: S-9, Method: STANDARD PLATE) is “inactive; negative”; the mutagenic call under setting [3] is “inactive; negative”; the mutagenic call (Test System: AMES SALMONELLA TYPHIMURIUM, Strain/Indicator: TA100, Metabolic Activation: S-9, Method: STANDARD PLATE) was “inactive; negative”; the mutagenic call under setting [16] is “inactive; negative”; the mutagenic call (Test System: AMES SALMONELLA TYPHIMURIUM, Strain/Indicator: TA1535, Metabolic Activation: S-9, Method: STANDARD PLATE) was “inactive; negative”. Further, the mutagenic call runs as follows: (Test System: AMES SALMONELLA TYPHIMURIUM, Strain/Indicator: TA1537, Metabolic Activation: NONE, Method: STANDARD PLATE) “inactive; negative”; (Test System: AMES SALMONELLA TYPHIMURIUM, Strain/Indicator: TA1537, Metabolic Activation: S-9, Method: STANDARD PLATE) “inactive; negative”.

For `CCOC(=O)CNC(=O)C=[N+]=[N-]`, the mutagenic call is, setting by setting: under setting [16], “active; positive”; (Test System: UDS RODENT PRIMARY CELLS, Strain/Indicator: THY INCORP (NON-S-PHASE), Metabolic Activation: NONE, Method: AUTORADIOGRAPHY) “active; positive”.
